Data reported in ChEMBL document CHEMBL1287680, “C-11 diamino cryptolepine derivatives NSC748392, NSC748393, and NSC748394: anticancer profile and G-quadruplex stabilization” (Bioorg Med Chem Lett, 2010).

What was measured:
Nucleic Acid = details: Homo sapiens
Description: Binding affinity to human duplex DNA assessed as change in melting temperature by FRET-melting assay

SK-OV-3 = assay: cells; details: Homo sapiens
Description: Anticancer activity against human SKOV3 cells

OVCAR-4 = assay: cells; details: Homo sapiens
Description: Anticancer activity against human OVCAR4 cells

OVCAR-3 = assay: cells; details: Homo sapiens
Description: Anticancer activity against human OVCAR-3 cells

SK-MEL-5 = assay: cells; details: Homo sapiens
Description: Anticancer activity against human SK-MEL-5 cells

SK-MEL-28 = assay: cells; details: Homo sapiens
Description: Anticancer activity against human SK-MEL-28 cells

M14 = assay: cells; details: Homo sapiens
Description: Anticancer activity against human M14 cells

Malme-3M = assay: cells; details: Homo sapiens
Description: Anticancer activity against human MALME-3M cells

U-251 = assay: cells; details: Homo sapiens
Description: Anticancer activity against human U251 cells

SF-539 = assay: cells; details: Homo sapiens
Description: Anticancer activity against human SF539 cells

SF-268 = assay: cells; details: Homo sapiens
Description: Anticancer activity against human SF268 cells

SW-620 = assay: cells; details: Homo sapiens
Description: Anticancer activity against human SW620 cells

HCT-116 = assay: cells; details: Homo sapiens
Description: Anticancer activity against human HCT116 cells

HCC 2998 = assay: cells; details: Homo sapiens
Description: Anticancer activity against human HCC2998 cells

COLO 205 = assay: cells; details: Homo sapiens
Description: Anticancer activity against human COLO205 cells

NCI-H460 = assay: cells; details: Homo sapiens
Description: Anticancer activity against human NCI-H460 cells

SR = assay: cells; details: Homo sapiens
Description: Anticancer activity against human SR cells

cells = details: Homo sapiens
Description: Anticancer activity against human RPMI8266 cells

MOLT-4 = assay: cells; details: Homo sapiens
Description: Anticancer activity against human MOLT4 cells

CCRF-CEM = assay: cells; details: Homo sapiens
Description: Anticancer activity against human CCRF-CEM cells

MDA-MB-468 = assay: cells; details: Homo sapiens
Description: Anticancer activity against human MDA-MB-468 cells

NCI/ADR-RES = assay: cells; details: Homo sapiens
Description: Anticancer activity against human NCI/ADR-RES cells

MCF7 = assay: cells; details: Homo sapiens
Description: Anticancer activity against human MCF7 cells

DU-145 = assay: cells; details: Homo sapiens
Description: Anticancer activity against human DU145 cells

PC-3 = assay: cells; details: Homo sapiens
Description: Anticancer activity against human PC3 cells

UO-31 = assay: cells; details: Homo sapiens
Description: Anticancer activity against human UO31 cells

SN12C = assay: cells; details: Homo sapiens
Description: Anticancer activity against human SN12C cells

CAKI-1 = assay: cells; details: Homo sapiens
Description: Anticancer activity against human Caki1 cells

ACHN = assay: cells; details: Homo sapiens
Description: Anticancer activity against human ACHN cells

Description for physchem: Dissociation constant, pKa of the compound by UV-visible spectroscopy

C[n+]1c2ccccc2c(Nc2ccc(N3CCCCC3)cc2)c2[nH]c3ccccc3c21.[Cl-]
ΔTm (Nucleic Acid): 1.2 °C
GI50 (SK-OV-3; SK-OV-3, read-out: pGI50 (converted)): 0.513 µM
CC50 (SK-OV-3; SK-OV-3, read-out: pLC50 (converted)): 4.27 µM
TGI (SK-OV-3; SK-OV-3, read-out: pTGI): 1.86 µM
GI50 (OVCAR-4; OVCAR-4, read-out: pGI50 (converted)): 0.363 µM
CC50 (OVCAR-4; OVCAR-4, read-out: pLC50 (converted)): 3.98 µM
TGI (OVCAR-4; OVCAR-4, read-out: pTGI): 1.35 µM
GI50 (OVCAR-3; OVCAR-3, read-out: pGI50 (converted)): 0.224 µM
CC50 (OVCAR-3; OVCAR-3, read-out: pLC50 (converted)): 0.933 µM
TGI (OVCAR-3; OVCAR-3, read-out: pTGI): 0.457 µM
GI50 (SK-MEL-5; SK-MEL-5, read-out: pGI50 (converted)): 0.229 µM
CC50 (SK-MEL-5; SK-MEL-5, read-out: pLC50 (converted)): 3.47 µM
TGI (SK-MEL-5; SK-MEL-5, read-out: pTGI): 1.2 µM
GI50 (SK-MEL-28; SK-MEL-28, read-out: pGI50 (converted)): 0.372 µM
CC50 (SK-MEL-28; SK-MEL-28, read-out: pLC50 (converted)): 3.47 µM
TGI (SK-MEL-28; SK-MEL-28, read-out: pTGI): 1.15 µM
GI50 (M14; M14, read-out: pGI50 (converted)): 0.389 µM
CC50 (M14; M14, read-out: pLC50 (converted)): 4.07 µM
TGI (M14; M14, read-out: pTGI): 1.45 µM
GI50 (Malme-3M; read-out: pGI50 (converted)): 0.417 µM
CC50 (Malme-3M; read-out: pLC50 (converted)): 4.57 µM
TGI (Malme-3M; read-out: pTGI): 1.7 µM
GI50 (U-251; U-251, read-out: pGI50 (converted)): 0.288 µM
CC50 (U-251; U-251, read-out: pLC50 (converted)): 3.63 µM
TGI (U-251; U-251, read-out: pTGI): 1.23 µM
GI50 (SF-539; SF-539, read-out: pGI50 (converted)): 0.646 µM
CC50 (SF-539; SF-539, read-out: pLC50 (converted)): 4.47 µM
TGI (SF-539; SF-539, read-out: pTGI): 1.95 µM
GI50 (SF-268; SF-268, read-out: pGI50 (converted)): 0.676 µM
CC50 (SF-268; SF-268, read-out: pLC50 (converted)): 6.03 µM
TGI (SF-268; SF-268, read-out: pTGI): 2.19 µM
GI50 (SW-620; SW-620, read-out: pGI50 (converted)): 0.105 µM
TGI (SW-620; SW-620, read-out: pTGI): 0.372 µM
GI50 (HCT-116; HCT-116, read-out: pGI50 (converted)): 0.132 µM
CC50 (HCT-116; HCT-116, read-out: pLC50 (converted)): 100 µM
TGI (HCT-116; HCT-116, read-out: pTGI): 0.363 µM
GI50 (HCC 2998; HCC 2998, read-out: pGI50 (converted)): 0.162 µM
CC50 (HCC 2998; HCC 2998, read-out: pLC50 (converted)): 0.813 µM
TGI (HCC 2998; HCC 2998, read-out: pTGI): 0.363 µM
GI50 (COLO 205; COLO 205, read-out: pGI50 (converted)): 0.141 µM
CC50 (COLO 205; COLO 205, read-out: pLC50 (converted)): 0.851 µM
TGI (COLO 205; COLO 205, read-out: pTGI): 0.347 µM
GI50 (NCI-H460; NCI-H460, read-out: pGI50 (converted)): 0.145 µM
CC50 (NCI-H460; NCI-H460, read-out: pLC50 (converted)): 2.29 µM
TGI (NCI-H460; NCI-H460, read-out: pTGI): 0.468 µM
GI50 (SR; read-out: pGI50 (converted)): 3.8 µM
CC50 (SR; read-out: pLC50 (converted)): > 100 µM
TGI (SR; read-out: pTGI): > 100 µM
GI50 (cells; RPMI8266, read-out: pGI50 (converted)): 0.158 µM
CC50 (cells; RPMI8266, read-out: pLC50 (converted)): 1 µM
TGI (cells; RPMI8266, read-out: pTGI): 0.398 µM
GI50 (MOLT-4; MOLT-4, read-out: pGI50 (converted)): 0.0708 µM
CC50 (MOLT-4; MOLT-4, read-out: pLC50 (converted)): > 100 µM
TGI (MOLT-4; MOLT-4, read-out: pTGI): 8.71 µM
GI50 (CCRF-CEM; read-out: pGI50 (converted)): 0.162 µM
CC50 (CCRF-CEM; read-out: pLC50 (converted)): 2 µM
TGI (CCRF-CEM; read-out: pTGI): 0.427 µM
GI50 (MDA-MB-468; MDA-MB-468, read-out: pGI50 (converted)): 0.135 µM
CC50 (MDA-MB-468; MDA-MB-468, read-out: pLC50 (converted)): 0.891 µM
TGI (MDA-MB-468; MDA-MB-468, read-out: pTGI): 0.347 µM
GI50 (NCI/ADR-RES; read-out: pGI50 (converted)): 0.617 µM
TGI (NCI/ADR-RES; read-out: pTGI): 2.45 µM
GI50 (MCF7; MCF7, read-out: pGI50 (converted)): 0.126 µM
CC50 (MCF7; MCF7, read-out: pLC50 (converted)): 0.912 µM
TGI (MCF7; MCF7, read-out: pTGI): 0.339 µM
GI50 (DU-145; DU-145, read-out: pGI50 (converted)): 0.398 µM
CC50 (DU-145; DU-145, read-out: pLC50 (converted)): 4.17 µM
TGI (DU-145; DU-145, read-out: pTGI): 1.48 µM
GI50 (PC-3; PC-3, read-out: pGI50 (converted)): 0.195 µM
CC50 (PC-3; PC-3, read-out: pLC50 (converted)): 3.24 µM
TGI (PC-3; PC-3, read-out: pTGI): 0.631 µM
GI50 (UO-31; UO-31, read-out: pGI50 (converted)): 0.145 µM
CC50 (UO-31; UO-31, read-out: pLC50 (converted)): 3.02 µM
TGI (UO-31; UO-31, read-out: pTGI): 0.832 µM
GI50 (SN12C; read-out: pGI50 (converted)): 0.204 µM
CC50 (SN12C; read-out: pLC50 (converted)): 6.76 µM
TGI (SN12C; read-out: pTGI): 1.41 µM
GI50 (CAKI-1; CAKI-1, read-out: pGI50 (converted)): 0.234 µM
CC50 (CAKI-1; CAKI-1, read-out: pLC50 (converted)): 3.16 µM
TGI (CAKI-1; CAKI-1, read-out: pTGI): 0.794 µM
GI50 (ACHN; read-out: pGI50 (converted)): 0.288 µM
CC50 (ACHN; read-out: pLC50 (converted)): 3.89 µM
TGI (ACHN; read-out: pTGI): 1.45 µM
pKa (physchem): 10
